Data set [1] in a line: transformation of crystalline form on drying or squeezing (form identified by XRD). The class given is physicochemical. How it is done:
All powder x-ray diffraction patterns were obtained by methods known in the art using a Scintag X′TRA X-ray powder diffractometer, equipped with a solid state Si(Li) detector thermoelectrically cooled, at scanning speed of 3° min.^−1. The scanning range was 2-40 degrees two-theta. Copper radiation of […] was used. The term x-ray diffraction “peaks” as used herein refers to x-ray diffraction reflections measured using an x-ray powder diffractometer. “Wet” samples (i.e. samples not dried) were analyzed “as is”. Dry samples were gently ground before analysis.
In yet another embodiment, the present invention relates to transformation, especially by drying or thermal treatment, of herein disclosed crystalline forms of valacyclovir hydrochloride to valacyclovir hydrochloride form I.
In a further embodiment, the present invention relates to transformation, especially by drying or squeezing, of herein disclosed crystalline forms of valacyclovir hydrochloride to valacyclovir hydrochloride for IV.

A short description of data set [2]: transformation of crystalline form on exposure to relative humidity. As to conditions: atmosphere of about 50% relative humidity for a day or more. Format: physicochemical.
For data set [3] the following is noted: oral administration, healthy adults; cited from earlier work.
For data set [4] the following is noted: oral administration; cited from earlier work.
Where [5] appears, read: drying at 50° to 60° C. for about 30 min or more, hydrochloride.
The mark [6] stands for this setting: drying, conditions not stated, hydrochloride.

Data on seven molecules can be found in US20050085491A1, “Novel crystalline forms of valacyclovir hydrochloride” (priority 2003, published 2005).

“Also recorded” adds a separate entry of the source.

Regarding `CC(C)[C@H](N)C(=O)OCCOCn1cnc2c(=O)nc(N)[nH]c21.Cl` [form IX, valacyclovir hydrochloride], the “crystalline form obtained on drying” value was “yields an anhydrous form of valacyclovir hydrochloride” in data set [1] (setting [5]); “mixture of form I and anhydrous form” in data set [1] (setting [6]).

For `CC(C)[C@H](N)C(=O)OCCOCn1cnc2c(=O)nc(N)[nH]c21.Cl` [form V, valacyclovir hydrochloride], the “crystalline form before and after drying” value in data set [1] (dried at 50° C. under vacuum, hydrochloride) is “valacyclovir hydrochloride form V”. Also, the “crystalline form obtained on drying” value in data set [1] (setting [6]) is recorded as “form V”.

For the molecule `CC(C)[C@H](N)C(=O)OCCOCn1cnc2c(=O)nc(N)[nH]c21.Cl` [form VIII, valacyclovir hydrochloride], the “crystalline form obtained on drying” value is reported as “yields a hydrate of valacyclovir hydrochloride form I” in data set [1] (drying at 20° to 120° C. for at least about 30 min) and “resulted in form I” in data set [1] (drying at 50-120° C.).

In the case of `CC(C)[C@H](N)C(=O)OCCOCn1cnc2c(=O)nc(N)[nH]c21.Cl` [form X, valacyclovir hydrochloride], the “crystalline form obtained on drying” value in data set [1] (setting [5]) was “yields a hydrate of valacyclovir form I”.

Regarding `CC(C)[C@H](N)C(=O)OCCOCn1cnc2c(=O)nc(N)[nH]c21.Cl` [form XI, valacyclovir hydrochloride], the “crystalline form obtained on drying” value in data set [1] (about 700 mm Hg, about 35° C., after 16 hours, about 35% humidity) is recorded as “form VIII”; in data set [1] (about 700 mm Hg, about 35° C., after 20 hours, 30% humidity), “form IV”; in data set [1] (setting [6]) it was “transformed to form I; also recorded: converted to form I”; in data set [1] (vacuum of 250-350 mm Hg at about 35 degrees up to humidity of about 20%), “form IV”. In addition, the “crystalline form obtained on reducing the water content” value in data set [1] (water content reduced to about 15 to 25%, e.g. by drying at about 30° to about 50° C.) is “transformation to form IV”. Further, the “crystalline form obtained on squeezing” value in data set [1] (wet sample squeezed on a Buchner filter up to humidity of about 20%) is on record as “form VIII”.

As to `CC(C)[C@H](N)C(=O)OCCOCn1cnc2c(=O)nc(N)[nH]c21.Cl` [form XII, valacyclovir hydrochloride], the “crystalline form obtained on exposure to humidity” value in data set [2] is “transformation to valacyclovir hydrochloride form I”.

Consider `CC(C)[C@H](N)C(=O)OCCOCn1cnc2c(=O)[nH]c(N)nc21` [valacyclovir, 1-valine, 2-[(2-amino-1,6-dihydro-6-oxo-9H-purin-9-yl)methoxy]ethyl ester], for which the conversion to acyclovir entry in data set [3] was “converted rapidly and virtually completely to acyclovir”. In data set [4], the “absorption from the gastrointestinal tract” value is on record as “rapidly absorbed”.
